Measured values taken from ChEMBL document CHEMBL1201862, “PubChem BioAssay data set” (2004).
Activity calls are given as the source filed them.

How the values were obtained:
[1] = molecular target: Neurotensin receptor type 1 (Homo sapiens, UniProt P30989); assay type: functional;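 also: Image-based confirmatory dose-response assay measuring agonist activity at NTR1; NTR1-expressing U2OS osteosarcoma cells imaged for beta-arrestin GFP spot formation; agonist potency where compounds increase beta-arrestin recruitment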
HT-1080 = test: HT1080 cell viability loss – fluorescence readout (AID 620); assay type: functional, cell-based; conditions: Homo sapiens
[2] = molecular target: Luciferin 4-monooxygenase (Photinus pyralis, UniProt P08659); test: Counter Screen for Luciferase-based Assay Positives. [Related pubchem assays: 620, 618, 411 ]
Bcl-2-like protein 10 = molecular target: T1, Bcl-2-like protein 10 (Homo sapiens, UniProt Q9HD36); test: Bcl-B/TR3 peptide binding disruption – biochemical, fluorescence polarization, FITC-TR3 peptide, selectivity assay for Bfl-1 inhibitor project, primary screen (AID 748);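 also: fluorescence polarization from a fluorescein-labelled TR3 peptide binding purified Bcl-B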
T1 sequence (Q9HD36 whole entry): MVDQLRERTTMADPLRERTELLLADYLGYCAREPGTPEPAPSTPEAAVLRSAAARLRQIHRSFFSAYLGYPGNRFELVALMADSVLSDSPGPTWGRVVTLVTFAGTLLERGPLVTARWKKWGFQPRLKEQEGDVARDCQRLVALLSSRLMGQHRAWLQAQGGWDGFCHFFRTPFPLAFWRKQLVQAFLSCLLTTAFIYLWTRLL

Prothrombin = Prothrombin (Homo sapiens, UniProt P00734); test: Thrombin 1536 HTS Dose Response Confirmation. [Related pubchem assays: 1046 (Thrombin 1536 HTS; hits were confirmed in this assay)]; assay type: functional
[3] = viability of PTEN-deleted HCT116 cells – cell-based, HCT116 PTEN knockout, dose response (AID 1047); assay type: functional;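 also: HCT116 colon tumor cells with PTEN knocked out; cells exposed to compound for 60 hours before readout; potency for loss of cell viability measured by luminescence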
[4] = viability of HCT116 lacking mutant beta-catenin – cell-based, human colon tumor, dose response (AID 1045); assay type: functional;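 also: HCT116 colon tumor cells with beta catenin knocked out; cells exposed to compound for 60 hours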
[5] = molecular target: Voltage-gated inwardly rectifying potassium channel KCNH2 (Homo sapiens, UniProt Q12809); test: concentration-dependent hERG rescue from blockers – cell-based, thallium flux, dose response (AID 2121); assay type: ADME
[6] = molecular target: T2, RNA-binding protein pos-1 (Caenorhabditis elegans, UniProt G5EF15); test: disruptors of C. elegans POS-1 RNA interaction – biochemical, fluorescence polarization, dose response (AID 1964);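 also: purified POS-1 fused to maltose binding protein made in E. coli; potency of compounds blocking POS-1 binding to fluorescent RNA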
T2 sequence (G5EF15 whole entry): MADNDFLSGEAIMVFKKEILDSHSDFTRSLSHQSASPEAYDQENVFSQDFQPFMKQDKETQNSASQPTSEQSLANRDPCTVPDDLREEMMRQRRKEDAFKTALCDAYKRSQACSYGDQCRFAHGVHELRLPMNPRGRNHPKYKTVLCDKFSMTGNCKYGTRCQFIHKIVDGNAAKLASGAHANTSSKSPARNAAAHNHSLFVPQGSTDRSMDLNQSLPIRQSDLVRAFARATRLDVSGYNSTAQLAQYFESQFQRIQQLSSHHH

[7] = Counterscreen for IDE inhibitors: Luminescence-based cell-based high throughput dose response assay to identify compounds that are cytotoxic to HEK cells. [Related pubchem assays: 434962 (Primary screen (IDE inhibitors in singlicate)), 449730 (Counterscreen (Cytotoxicity in triplicate)), 435028 (Confirmation (IDE inhibitors in triplicate)) …; assay type: functional; conditions: HEK293
Insulin-degrading enzyme = molecular target: T3, Insulin-degrading enzyme (Homo sapiens, UniProt P14735); test: Dose Response: Fluorescence polarization-based cell-based high throughput dose response assay for inhibitors of insulin-degrading enzyme (IDE). [Related pubchem assays: 434962 (Primary screen (IDE inhibitors in singlicate)), 449730 (Counterscreen (Cytotoxicity in triplicate)), 435028 (Confirmation (IDE inhibitors in triplicate)), 434984 (Summary …; assay type: functional
T3 sequence (P14735 whole entry): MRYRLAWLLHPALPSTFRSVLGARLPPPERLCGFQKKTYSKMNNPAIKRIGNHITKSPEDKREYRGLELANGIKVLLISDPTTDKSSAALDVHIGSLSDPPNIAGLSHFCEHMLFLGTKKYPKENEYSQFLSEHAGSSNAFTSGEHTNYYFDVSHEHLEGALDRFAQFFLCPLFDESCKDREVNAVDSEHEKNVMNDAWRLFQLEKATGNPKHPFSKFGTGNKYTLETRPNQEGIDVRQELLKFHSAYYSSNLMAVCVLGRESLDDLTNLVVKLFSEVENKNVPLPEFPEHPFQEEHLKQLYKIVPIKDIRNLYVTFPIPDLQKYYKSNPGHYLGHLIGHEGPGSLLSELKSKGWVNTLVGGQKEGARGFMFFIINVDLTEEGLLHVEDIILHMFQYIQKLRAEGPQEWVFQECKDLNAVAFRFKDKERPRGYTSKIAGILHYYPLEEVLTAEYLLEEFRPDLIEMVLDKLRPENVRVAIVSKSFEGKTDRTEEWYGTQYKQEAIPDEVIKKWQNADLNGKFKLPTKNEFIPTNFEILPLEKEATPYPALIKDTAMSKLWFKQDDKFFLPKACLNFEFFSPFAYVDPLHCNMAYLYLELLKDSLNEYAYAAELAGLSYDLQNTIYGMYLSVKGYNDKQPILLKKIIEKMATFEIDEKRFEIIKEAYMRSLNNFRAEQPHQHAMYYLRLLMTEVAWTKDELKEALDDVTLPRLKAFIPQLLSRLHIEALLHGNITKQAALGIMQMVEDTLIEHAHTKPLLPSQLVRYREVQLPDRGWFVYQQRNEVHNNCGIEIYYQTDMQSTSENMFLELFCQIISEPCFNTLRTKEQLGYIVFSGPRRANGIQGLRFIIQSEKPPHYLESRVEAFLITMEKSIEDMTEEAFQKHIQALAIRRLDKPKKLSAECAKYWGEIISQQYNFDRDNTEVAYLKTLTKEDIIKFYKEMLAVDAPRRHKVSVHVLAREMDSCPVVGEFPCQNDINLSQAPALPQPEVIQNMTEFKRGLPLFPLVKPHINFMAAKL

[8] = molecular target: T4, Zinc finger protein mex-5 (Caenorhabditis elegans, UniProt Q9XUB2); test: potency of MEX-5 RNA-binding blockers – biochemical, C. elegans, fluorescence polarization, dose response (AID 1960)
T4 sequence (Q9XUB2 whole entry): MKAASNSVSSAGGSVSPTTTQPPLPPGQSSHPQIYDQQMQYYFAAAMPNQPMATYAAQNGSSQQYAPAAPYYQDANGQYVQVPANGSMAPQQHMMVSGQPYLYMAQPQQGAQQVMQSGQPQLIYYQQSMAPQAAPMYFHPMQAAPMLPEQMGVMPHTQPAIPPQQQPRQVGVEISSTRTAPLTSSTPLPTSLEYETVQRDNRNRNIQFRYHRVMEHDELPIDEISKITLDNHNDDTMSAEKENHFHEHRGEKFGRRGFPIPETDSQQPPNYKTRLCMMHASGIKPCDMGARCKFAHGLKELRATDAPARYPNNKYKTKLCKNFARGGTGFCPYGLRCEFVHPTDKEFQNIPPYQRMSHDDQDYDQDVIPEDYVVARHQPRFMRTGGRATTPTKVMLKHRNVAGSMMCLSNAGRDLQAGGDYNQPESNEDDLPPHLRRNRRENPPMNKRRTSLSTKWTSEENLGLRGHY

Kallikrein-7 = Kallikrein-7 (Homo sapiens, UniProt P49862); test: Fluorescence Intensity-based biochemical primary high throughput dose response assay to identify activators of kallikrein-7 (K7) zymogen.
[9] = test system: Streptococcus sp. 'group A'; test: Streptococcus pyogenes SK(-)GAS viability under kanamycin – luminescence, BacTiterGlo, confirmation, counter-screen for streptokinase expression inhibitor project, dose response (AID 1900); assay type: functional, organism-based
[10] = molecular target: Eukaryotic translation initiation factor 4E (Mus musculus, UniProt P63073); test: blockers of eIF4G binding by eIF4E – biochemical, TR-FRET, dose response (AID 855); assay type: functional;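 also: potency for disrupting eIF4E binding to eIF4GI seen as loss of FRET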
Streptokinase A = molecular target: T5, Streptokinase A (Streptococcus pyogenes serotype M1, UniProt P10520); test: viability-normalized secreted streptokinase activity reduction – plasminogen activation absorbance, OD405, dose response (AID 1914); assay type: functional, Streptococcus pyogenes M1 GAS;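 also: secreted streptokinase activity via plasminogen activation per viability signal from cell pellet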
T5 sequence (P10520 whole entry): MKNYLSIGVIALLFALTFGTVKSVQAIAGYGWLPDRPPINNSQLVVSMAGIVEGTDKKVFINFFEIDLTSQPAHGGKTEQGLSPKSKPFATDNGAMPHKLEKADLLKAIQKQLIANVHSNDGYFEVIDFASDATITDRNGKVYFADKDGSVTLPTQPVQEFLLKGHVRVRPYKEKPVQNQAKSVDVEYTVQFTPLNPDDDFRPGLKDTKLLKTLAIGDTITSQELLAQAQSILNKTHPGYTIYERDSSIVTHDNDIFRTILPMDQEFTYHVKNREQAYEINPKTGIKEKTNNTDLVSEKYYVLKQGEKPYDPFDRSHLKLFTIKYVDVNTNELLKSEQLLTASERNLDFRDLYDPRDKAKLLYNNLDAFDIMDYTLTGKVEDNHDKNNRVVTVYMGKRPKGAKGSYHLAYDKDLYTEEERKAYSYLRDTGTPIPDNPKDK

Streptococcus = test: GAS UMAA2166 growth inhibition – luminescence, BacTiterGlo, counter-screen for streptokinase expression inhibitor project, dose response (AID 1915); assay type: functional, organism-based;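 also: potency for reduction of bacterial viability or growth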
[11] = molecular target: Glyceraldehyde-3-phosphate dehydrogenase (Homo sapiens, UniProt P04406)
[12] = molecular target: T6, Alkaline phosphatase, tissue-nonspecific isozyme (Homo sapiens, UniProt P05186); test: potency against alkaline phosphatase TNAP – biochemical, luminescent, dose response, SAR follow-up (AID 1056)
T6 sequence (P05186 whole entry): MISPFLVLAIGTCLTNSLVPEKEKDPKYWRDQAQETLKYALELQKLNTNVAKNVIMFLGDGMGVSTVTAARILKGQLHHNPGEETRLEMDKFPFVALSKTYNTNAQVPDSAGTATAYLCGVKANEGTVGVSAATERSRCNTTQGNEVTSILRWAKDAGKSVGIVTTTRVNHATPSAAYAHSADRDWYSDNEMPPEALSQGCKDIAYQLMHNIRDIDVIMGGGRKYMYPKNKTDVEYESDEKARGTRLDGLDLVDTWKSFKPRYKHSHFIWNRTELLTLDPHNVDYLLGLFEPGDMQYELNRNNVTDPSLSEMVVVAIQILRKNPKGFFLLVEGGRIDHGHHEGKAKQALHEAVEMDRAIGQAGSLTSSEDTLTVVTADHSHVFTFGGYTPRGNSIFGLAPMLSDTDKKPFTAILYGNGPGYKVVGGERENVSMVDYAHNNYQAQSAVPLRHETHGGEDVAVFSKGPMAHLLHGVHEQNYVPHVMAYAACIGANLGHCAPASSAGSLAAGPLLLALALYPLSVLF

Neurotensin receptor type 1, sequence (P30989 whole entry): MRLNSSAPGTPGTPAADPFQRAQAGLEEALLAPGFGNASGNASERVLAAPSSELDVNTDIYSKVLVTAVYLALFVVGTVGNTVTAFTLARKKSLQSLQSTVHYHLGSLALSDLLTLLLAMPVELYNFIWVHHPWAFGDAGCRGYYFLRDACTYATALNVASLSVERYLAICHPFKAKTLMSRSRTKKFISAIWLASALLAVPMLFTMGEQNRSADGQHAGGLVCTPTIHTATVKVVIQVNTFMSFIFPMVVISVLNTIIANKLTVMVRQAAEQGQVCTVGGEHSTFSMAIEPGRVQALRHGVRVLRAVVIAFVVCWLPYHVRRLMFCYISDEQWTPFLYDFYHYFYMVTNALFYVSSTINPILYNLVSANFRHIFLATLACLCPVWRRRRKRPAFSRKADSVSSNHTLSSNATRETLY
Eukaryotic translation initiation factor 4E, sequence (P63073 whole entry): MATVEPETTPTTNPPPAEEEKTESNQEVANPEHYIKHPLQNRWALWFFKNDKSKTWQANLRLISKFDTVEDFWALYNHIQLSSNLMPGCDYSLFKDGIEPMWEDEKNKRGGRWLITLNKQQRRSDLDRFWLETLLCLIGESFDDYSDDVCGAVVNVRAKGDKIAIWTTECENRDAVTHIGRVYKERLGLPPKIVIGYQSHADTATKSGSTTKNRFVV
Luciferin 4-monooxygenase, sequence (P08659 whole entry): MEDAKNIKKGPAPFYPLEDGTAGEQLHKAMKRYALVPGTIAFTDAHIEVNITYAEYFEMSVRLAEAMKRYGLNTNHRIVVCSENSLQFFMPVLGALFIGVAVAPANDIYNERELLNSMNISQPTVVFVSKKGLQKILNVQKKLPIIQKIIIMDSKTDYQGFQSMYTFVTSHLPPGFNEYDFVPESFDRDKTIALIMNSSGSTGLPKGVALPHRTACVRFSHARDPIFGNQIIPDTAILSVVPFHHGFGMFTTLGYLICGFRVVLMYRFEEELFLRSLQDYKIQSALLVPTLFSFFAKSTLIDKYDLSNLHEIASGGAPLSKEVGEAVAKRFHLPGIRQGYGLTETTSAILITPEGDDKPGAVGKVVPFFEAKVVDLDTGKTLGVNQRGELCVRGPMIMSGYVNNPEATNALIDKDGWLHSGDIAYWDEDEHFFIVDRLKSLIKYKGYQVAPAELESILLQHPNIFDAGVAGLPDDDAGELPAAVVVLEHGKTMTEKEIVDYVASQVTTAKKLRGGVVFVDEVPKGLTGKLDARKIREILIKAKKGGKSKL
Glyceraldehyde-3-phosphate dehydrogenase, sequence (P04406 whole entry): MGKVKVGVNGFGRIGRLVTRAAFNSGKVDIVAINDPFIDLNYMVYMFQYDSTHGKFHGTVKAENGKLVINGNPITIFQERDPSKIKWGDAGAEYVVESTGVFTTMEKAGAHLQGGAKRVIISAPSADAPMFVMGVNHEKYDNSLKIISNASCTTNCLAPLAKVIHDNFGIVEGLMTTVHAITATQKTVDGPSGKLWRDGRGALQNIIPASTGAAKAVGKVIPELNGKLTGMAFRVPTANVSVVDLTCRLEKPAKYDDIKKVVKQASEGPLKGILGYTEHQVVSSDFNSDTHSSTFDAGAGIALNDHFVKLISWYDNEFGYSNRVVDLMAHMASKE
Kallikrein-7, sequence (P49862 whole entry): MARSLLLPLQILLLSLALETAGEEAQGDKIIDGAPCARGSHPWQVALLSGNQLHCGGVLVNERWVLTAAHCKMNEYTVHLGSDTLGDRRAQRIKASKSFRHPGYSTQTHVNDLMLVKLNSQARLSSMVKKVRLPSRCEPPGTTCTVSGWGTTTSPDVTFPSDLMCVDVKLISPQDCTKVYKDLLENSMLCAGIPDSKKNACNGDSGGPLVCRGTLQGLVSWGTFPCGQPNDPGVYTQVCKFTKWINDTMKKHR
Voltage-gated inwardly rectifying potassium channel KCNH2, sequence (Q12809 whole entry, the tested form may be a part): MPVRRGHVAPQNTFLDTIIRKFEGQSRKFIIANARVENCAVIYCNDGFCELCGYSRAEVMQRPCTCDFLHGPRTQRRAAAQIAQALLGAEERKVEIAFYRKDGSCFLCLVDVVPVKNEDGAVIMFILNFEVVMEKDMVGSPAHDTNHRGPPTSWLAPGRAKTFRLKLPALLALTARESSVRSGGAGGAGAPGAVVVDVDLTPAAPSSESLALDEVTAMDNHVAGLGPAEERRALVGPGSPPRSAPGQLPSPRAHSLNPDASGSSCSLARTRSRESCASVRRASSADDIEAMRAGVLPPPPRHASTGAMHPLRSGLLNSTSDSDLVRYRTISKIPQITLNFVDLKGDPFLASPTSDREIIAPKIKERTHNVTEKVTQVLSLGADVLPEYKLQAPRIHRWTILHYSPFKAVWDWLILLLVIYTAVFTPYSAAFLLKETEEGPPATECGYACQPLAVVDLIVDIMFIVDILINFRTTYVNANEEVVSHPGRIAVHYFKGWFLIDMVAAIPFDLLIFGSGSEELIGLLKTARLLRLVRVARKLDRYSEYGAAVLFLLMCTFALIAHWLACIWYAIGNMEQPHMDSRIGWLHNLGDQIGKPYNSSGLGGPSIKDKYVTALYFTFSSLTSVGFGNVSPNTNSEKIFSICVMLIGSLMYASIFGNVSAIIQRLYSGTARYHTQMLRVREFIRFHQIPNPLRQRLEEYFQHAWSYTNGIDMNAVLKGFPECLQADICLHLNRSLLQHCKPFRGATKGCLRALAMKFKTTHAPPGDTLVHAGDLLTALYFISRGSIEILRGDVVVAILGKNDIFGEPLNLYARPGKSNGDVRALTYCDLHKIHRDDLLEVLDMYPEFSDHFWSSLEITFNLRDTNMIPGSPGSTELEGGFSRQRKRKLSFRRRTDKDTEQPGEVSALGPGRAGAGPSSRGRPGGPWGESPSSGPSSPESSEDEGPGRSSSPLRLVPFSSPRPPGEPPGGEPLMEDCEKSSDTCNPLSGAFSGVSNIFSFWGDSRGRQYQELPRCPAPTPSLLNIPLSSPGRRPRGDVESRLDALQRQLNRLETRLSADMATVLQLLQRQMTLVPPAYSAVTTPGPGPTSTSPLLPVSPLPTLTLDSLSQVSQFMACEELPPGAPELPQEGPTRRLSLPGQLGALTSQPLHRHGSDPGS

## CC(C)(C)OC(=O)N1CCC(NC(=O)c2[nH]cnc2C(=O)N[C@@H](Cc2ccccc2)C(=O)OCc2ccccc2)CC1
[1]
  EC50: 32.2 µM (inactive)

## Cc1ccc(NC(=O)N2CCc3ccccc32)cc1
HT-1080
  EC50: > 50 µM (not active)
[2]
  EC50: 0.72 µM (active)

## CC1CCN(c2ccc(C(=O)O)cc2N)CC1
Bcl-2-like protein 10
  IC50: 30.5 µM (active)

## Nc1nc(-c2ccco2)nn1C(=O)CCc1ccccc1
Prothrombin
  IC50: 0.0191 µM (active)
Bcl-2-like protein 10
  IC50: > 100 µM (inactive)

## CC(=O)Nc1cccc(C(=O)/C=C/c2ccc(Br)cc2)c1
[3]
  EC50: 3.77 µM (active)
[4]
  EC50: 3.18 µM (active)
[1]
  EC50: 13.3 µM (active)

## COC(=O)c1sccc1NS(=O)(=O)c1ccc(F)cc1F
[5]
  EC50: 2.94 µM (active)

## COc1ccc(-n2c(C)cc(/C=C3\SC(=S)N(Cc4ccco4)C3=O)c2C)cc1
[6]
  EC50: > 300 µM (not active)
[7]
  IC50: 38 µM (not active)
Insulin-degrading enzyme
  IC50: > 55.9 µM (not active)
[8]
  EC50: 121 µM (active)

## Cc1cccc(C(=O)Nc2ccnc(-c3cccnc3)n2)c1
[7]
  IC50: 35.7 µM (not active)
Insulin-degrading enzyme
  IC50: 7 µM (active)

## Nc1ccc2[nH]c(-c3cc(Cl)c(N)c(Cl)c3)nc2c1
Kallikrein-7
  EC50: > 69.5 µM (inactive)
[9]
  EC50: 42.8 µM (active)
[10]
  IC50: > 64 µM (inactive)
Streptokinase A
  EC50: > 150 µM (not active)
Streptococcus
  EC50: > 150 µM (not active)

## COC(=O)c1cc(-c2ccc(F)cc2F)[nH]n1
[11]
  IC50: > 10 µM (inconclusive)
[12]
  IC50: 0.192 µM (active)
